How the values were obtained:
[1] = test system: Mus musculus; assay: (§1) Immunostimulatory activity in mouse B16/F10 cells implanted BALB/c mouse assessed as increase in activation of tumor-microenvironment mediated helper T cells in tumor by measuring melanoma cell population at 25 mg/kg, ig administered once daily via gavage for 15 days measured 24 hrs post-last dose by immunostaining based flow cytometry (reference value: 70%); type: functional
[2] = test system: Mus musculus; assay: (§2) Effect on activated cytotoxic T cell population in mouse B16/F10 cells implanted […] mouse assessed as CD8-positive cell population in spleen at 100 mg/kg, ig administered once daily via gavage for 15 days measured 24 hrs post-last dose by immunostaining based flow cytometry (reference value: 0.383 %); type: organism-based; conditions: in vivo, po
[3] = test system: Mus musculus; assay: Effect on spleen helper T cell population in mouse B16/F10 cells implanted […] mouse assessed as CD3-positive cell population at 50 mg/kg, ig administered once daily via gavage for 15 days measured 24 hrs post-last dose by immunostaining based flow cytometry (reference value: 14.7%); type: organism-based; conditions: in vivo, po
[4] = Oral bioavailability in Sprague-Dawley rat at 10 mg/kg by LC-MS/MS analysis; type: ADME, organism-based; conditions: in vivo
[5] = test system: Mus musculus; assay: Effect on spleen helper T cell population in mouse B16/F10 cells implanted […] mouse assessed as spleen cell population at 25 mg/kg, ig administered once daily via gavage for 15 days measured 24 hrs post-last dose by immunostaining based flow cytometry (reference value: 56.1 %); type: ADME, organism-based; conditions: in vivo, po
[6] = test system: Mus musculus; assay: Effect on spleen helper T cell population in mouse B16/F10 cells implanted […] mouse assessed as CD3-positive/CD4-positive cell population at 25 mg/kg, ig administered once daily via gavage for 15 days measured 24 hrs post-last dose by immunostaining based flow cytometry (reference value: 27.7%); type: ADME, organism-based; conditions: in vivo, po
[7] = test system: Mus musculus; assay: Effect on activated cytotoxic T cell population in mouse B16/F10 cells implanted […] mouse assessed as spleen cell population at 50 mg/kg, ig administered once daily via gavage for 15 days measured 24 hrs post-last dose by immunostaining based flow cytometry (reference value: 57.9 %); type: organism-based; conditions: in vivo, po
[8] = test system: Mus musculus; assay: as §1, with “CD3-positive” for “melanoma”, “50” for “25”, “18.9%)” for “70%)”; type: functional
[9] = test system: Mus musculus; assay: Effect on spleen helper T cell population in mouse B16/F10 cells implanted […] mouse assessed as CD4-positive cell population at 100 mg/kg, ig administered once daily via gavage for 15 days measured 24 hrs post-last dose by immunostaining based flow cytometry (reference value: 1.47 %); type: ADME, organism-based; conditions: in vivo, po
[10] = Tmax in Sprague-Dawley rat at 10 mg/kg, po by LC-MS/MS analysis; type: ADME, organism-based; conditions: in vivo
[11] = test system: Mus musculus; assay: Effect on activated cytotoxic T cell population in mouse B16/F10 cells implanted […] mouse assessed as CD3-positive/CD8-positive cell population in spleen at 25 mg/kg, ig administered once daily via gavage for 15 days measured 24 hrs post-last dose by immunostaining based flow cytometry (reference value: 14.2 %); type: organism-based; conditions: in vivo, po
[12] = test system: Mus musculus; assay: as §1, with “100” for “25”; type: functional
[13] = Half life in Sprague-Dawley rat at 10 mg/kg, po by LC-MS/MS analysis; type: ADME, organism-based; conditions: in vivo
[14] = test system: Mus musculus; assay: Effect on spleen helper T cell population in mouse B16/F10 cells implanted […] mouse assessed as spleen cell population at 50 mg/kg, ig administered once daily via gavage for 15 days measured 24 hrs post-last dose by immunostaining based flow cytometry (reference value: 56.1 %); type: ADME, organism-based; conditions: in vivo, po
[15] = test system: Mus musculus; assay: as §1, with “activated cytotoxic” for “helper”, “CD8-positive” for “melanoma”, “100” for “25”, “2.2%)” for “70%)”; type: functional
[16] = biological target: Programmed cell death protein 1/Programmed cell death 1 ligand 1 (Homo sapiens, UniProt Q9NZQ7); assay: Inhibition of human C-terminal Ig-Fc-tagged PD1 (Leu25 to Gln167 residues) expressed in HEK293 cells/human C-terminal epitope-His-tagged PDL1 (Phe19 to Arg238 residues) expressed in HEK293 cells protein-protein interaction preincubated for 15 mins with PDL1 followed by PD1 addition and measured after 15 mins by APC-labeled anti-His antibody/Eu-labeled anti-human IgG based HTRF assay; type: cell-based
Chain of Programmed cell death protein 1/Programmed cell death 1 ligand 1 (Q15116 whole entry): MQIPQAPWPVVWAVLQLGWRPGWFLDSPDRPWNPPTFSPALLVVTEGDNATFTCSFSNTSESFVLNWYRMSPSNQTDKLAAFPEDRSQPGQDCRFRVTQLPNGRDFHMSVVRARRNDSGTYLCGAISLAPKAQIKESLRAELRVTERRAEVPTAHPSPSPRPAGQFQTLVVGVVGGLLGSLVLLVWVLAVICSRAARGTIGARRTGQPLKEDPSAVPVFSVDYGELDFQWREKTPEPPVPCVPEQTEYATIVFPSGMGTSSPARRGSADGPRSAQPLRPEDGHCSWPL
Chain of Programmed cell death protein 1/Programmed cell death 1 ligand 1 (Q9NZQ7 whole entry): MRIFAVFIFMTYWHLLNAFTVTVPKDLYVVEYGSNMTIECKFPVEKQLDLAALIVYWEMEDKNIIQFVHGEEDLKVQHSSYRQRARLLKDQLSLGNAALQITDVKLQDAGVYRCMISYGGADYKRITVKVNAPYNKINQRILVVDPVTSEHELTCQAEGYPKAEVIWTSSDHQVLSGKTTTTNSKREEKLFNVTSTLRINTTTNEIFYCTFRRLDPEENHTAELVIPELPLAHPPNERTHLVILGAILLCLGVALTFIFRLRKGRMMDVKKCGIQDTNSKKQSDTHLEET

[17] = test system: Mus musculus; assay: Effect on spleen helper T cell population in mouse B16/F10 cells implanted […] mouse assessed as spleen cell population at 100 mg/kg, ig administered once daily via gavage for 15 days measured 24 hrs post-last dose by immunostaining based flow cytometry (reference value: 56.1 %); type: ADME, organism-based; conditions: in vivo, po
[18] = test system: A549; assay: Cytotoxicity against human A549 cells assessed as reduction in cell viability measured after 48 hrs by MTT assay; type: functional, cell-based; conditions: A549, 48 h
[19] = test system: Mus musculus; assay: as §1, with “activated cytotoxic” for “helper”, “CD3-positive/CD8-positive” for “melanoma”, “50” for “25”, “4.18%)” for “70%)”; type: functional
[20] = Clearance in Sprague-Dawley rat at 10 mg/kg, po by LC-MS/MS analysis; type: ADME, organism-based; conditions: in vivo
[21] = test system: Mus musculus; assay: as §1, with “activated cytotoxic” for “helper”, “CD3-positive” for “melanoma”, “100” for “25”, “20.8%)” for “70%)”; type: functional
[22] = test system: Mus musculus; assay: as §1, with “activated cytotoxic” for “helper”, “CD8-positive” for “melanoma”, “2.2%)” for “70%)”; type: functional
[23] = test system: Mus musculus; assay: as §1, with “50” for “25”; type: functional
[24] = test system: Mus musculus; assay: as §2, with “50” for “100”; type: organism-based; conditions: in vivo, po
[25] = Cmax in Sprague-Dawley rat at 1 mg/kg, iv by LC-MS/MS analysis; type: ADME, organism-based; parameters: dose 1 mg/kg, route intravenous; conditions: in vivo

## Cc1c(COc2cc(OCc3cccc(C#N)c3)c(CNC(C)(C)C(=O)O)cc2Cl)cccc1-c1ccccc1
[1]
  Activity: 65.2%
[2]
  Activity: 0.44%
[3]
  Activity: 16.7%
[4]
  bioavailability: 5%
[5]
  Activity: 59.9%
[6]
  Activity: 24.4%
[7]
  Activity: 55.4%
[8]
  Activity: 17.7%
[9]
  Activity: 1.78%
[10]
  Tmax: 0.6 h
[11]
  Activity: 12.5%
[12]
  Activity: 57%
[13]
  half-life: 10.9 h
[14]
  Activity: 53.9%
[15]
  Activity: 13.5%
[16]
  IC50: 12.5 nM
[17]
  Activity: 60.4%
[18]
  IC50: > 10000 nM
[19]
  Activity: 14.8%
[20]
  CL/F: 385 mL/min/kg
[21]
  Activity: 18.7%
[22]
  Activity: 10.2%
[23]
  Activity: 68.4%
[24]
  Activity: 0.374%
[25]
  Cmax: 1750 ng/mL

From ChEMBL document CHEMBL4619786, “Discovery of Novel Resorcinol Dibenzyl Ethers Targeting the Programmed Cell Death-1/Programmed Cell Death-Ligand 1 Interaction as Potential Anticancer Agents” (J Med Chem, 2020)
